# According to the supplement of paper PMC10307832:
# Columns and labels:
# Test in all cases: relative viability (nuclei count vs DMSO), 5 days (fraction); higher = more cells survive
# [1] = compound: C1=CC2=C(C=CC(=C2)C=C3C(=O)NC(=NCC4=CC=CS4)S3)N=C1 [RO-3306] + CC(C)C[C@H](NC(=O)[C@H](Cc1ccccc1)NC(=O)c1cnccn1)B(O)O [Bortezomib] (partner 0.002 µM)
# In short: (§1)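 One day after seeding in 1536-well plates, lung cancer cell lines were dosed by pin tool. Dosing was either single-drug or a fixed anchor-drug dose plus five library-drug doses (not always all listed) in √10 steps. After 5 days, nuclei were stained in one fix-and-stain step and counted on 4× images, and relative viability is the nuclei count of treated wells over that of vehicle wells, given as the median of duplicate plates.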
# [2] = compound: O=S(=O)(c1ccccc1)N(CC(F)(F)F)c1ccc(C(O)(C(F)(F)F)C(F)(F)F)cc1 + COc1cccc2cc(-c3nc([C@H]4CC[C@H](C(=O)O)CC4)n4ncnc(N)c34)[nH]c12 [OSI-027] (partner 0.5 µM)
# In short: as §1
# [3] = compound: C1=CC2=C(C=CC(=C2)C=C3C(=O)NC(=NCC4=CC=CS4)S3)N=C1 [RO-3306] + N=C(N)NC(=N)NCCc1ccccc1 [Phenformin] (partner 250 µM)
# In short: as §1
# [4] = compound: C1=CC2=C(C=CC(=C2)C=C3C(=O)NC(=NCC4=CC=CS4)S3)N=C1 [RO-3306] + O=C(c1cc(Cc2n[nH]c(=O)c3ccccc23)ccc1F)N1CCN(C(=O)C2CC2)CC1 [Olaparib] (partner 8 µM)
# In short: as §1
cell line,measurement,setting,value
UMC-11,relative viability,[1]; first compound 0.01 µM,1.22
same,relative viability,[1]; first compound 0.03162 µM,0.407
same,relative viability,[1]; first compound 0.1 µM,0.64
same,relative viability,[1]; first compound 0.3162 µM,0.689
same,relative viability,[1]; first compound 1 µM,0.538
same,relative viability,[2]; first compound 0.8 µM,0.491
same,relative viability,[2]; first compound 2.53 µM,0.444
same,relative viability,[2]; first compound 8 µM,0.526
same,relative viability,[3]; first compound 0.01 µM,0.351
same,relative viability,[3]; first compound 0.03162 µM,0.291
same,relative viability,[3]; first compound 0.1 µM,0.3
same,relative viability,[3]; first compound 0.3162 µM,0.366
same,relative viability,[3]; first compound 1 µM,0.315
same,relative viability,[4]; first compound 0.01 µM,0.365
same,relative viability,[4]; first compound 0.03162 µM,0.411
same,relative viability,[4]; first compound 0.1 µM,0.351
same,relative viability,[4]; first compound 0.3162 µM,0.385
same,relative viability,[4]; first compound 1 µM,0.299
